Reference: ChEMBL document CHEMBL4665685, “Neuroprotective Effects of Triterpenoids from Camellia japonica against Amyloid β-Induced Neuronal Damage” (J Nat Prod, 2020)
Calls of active or inactive are those of the source. The calls are words filed in the database; no cut-off is given here.

What was measured:
[1] = target: Beta-secretase 1 (Homo sapiens) (UniProt P56817); experiment: Inhibition of BACE1 (unknown origin) at 20 uM measured after 60 mins by FRET assay relative to control
[2] = tested on: HT-22; experiment: Neuroprotective activity against glutamate-induced cell death in mouse HT22 cells assessed as increase in cell viability at 40 uM preincubated for 6 hrs followed by glutamate-challenge and measured after 16 hrs by MTT assay relative to control; assay type: functional
[3] = tested on: HT-22; experiment: Cytotoxicity against mouse HT-22 cells assessed as reduction in cell viability at 40 uM after 24 hrs by MTT assay; assay type: cell-based; settings: ht-22, 24 h
[4] = tested on: HT-22; experiment: Neuroprotective activity in mouse HT-22 cells assessed as reduction in amyloid beta (1 to 42 residues)-induced glutamate level at 40 uM after 24 hrs by fluorescence assay (reference value: 3.17); assay type: functional
[5] = tested on: HT-22; experiment: Neuroprotective activity against amyloid beta (1 to 42) transfected mouse HT22-ARE cells assessed as reversal of increase in antioxidant response element-luciferase activity at 40 uM after 18 hrs by reporter gene assay; assay type: functional, cell-based
[6] = target: Beta-secretase 1 (Homo sapiens) (UniProt P56817); experiment: Inhibition of BACE1 (unknown origin) at 10 uM measured after 60 mins by FRET assay
[7] = tested on: BV-2; experiment: Cytotoxicity against mouse BV2 cells assessed as reduction in cell viability at 40 uM after 18 hrs by MTT assay; assay type: cell-based; settings: bv-2, 18 h
[8] = tested on: HT-22; experiment: Neuroprotective activity against in amyloid beta (1 to 42) transfected mouse HT22 cells assessed as reduction in overexpression of the green fluorescent pEGFP-C1 gene at 40 uM after 24 hrs by reporter gene assay; assay type: functional, cell-based
[9] = tested on: HT-22; experiment: Neuroprotective activity against amyloid beta (1 to 42) transfected mouse HT-22 cells assessed as protection against amyloid-induced inflammation at 40 uM after 24 hrs by MTT assay; assay type: functional, cell-based
[10] = tested on: BV-2; experiment: Anti-neuroinflammatory activity in mouse BV-2 cells assessed as reduction in amyloid beta (1 to 42 residues)-induced nitric oxide at 40 uM after 18 hrs; assay type: functional, cell-based
[11] = tested on: HT-22; experiment: Neuroprotective activity against amyloid beta (1 to 42 residues)-induced cell death in mouse HT22 cells assessed as increase in cell viability at 1 uM after 24 hrs by MTT assay (reference value: 51.2%); assay type: functional
[12] = tested on: HT-22; experiment: Neuroprotective activity against amyloid beta (1 to 42 residues)-induced cell death in mouse HT22 cells assessed as increase in cell viability at 5 uM after 24 hrs by MTT assay (reference value: 51.2%); assay type: functional
[13] = tested on: HT-22; experiment: Neuroprotective activity against amyloid beta (1 to 42 residues)-induced cell death in mouse HT22 cells assessed as increase in cell viability at 20 uM after 24 hrs by MTT assay (reference value: 51.2%); assay type: functional

Chain of Beta-secretase 1 (Homo sapiens) (P56817 whole entry): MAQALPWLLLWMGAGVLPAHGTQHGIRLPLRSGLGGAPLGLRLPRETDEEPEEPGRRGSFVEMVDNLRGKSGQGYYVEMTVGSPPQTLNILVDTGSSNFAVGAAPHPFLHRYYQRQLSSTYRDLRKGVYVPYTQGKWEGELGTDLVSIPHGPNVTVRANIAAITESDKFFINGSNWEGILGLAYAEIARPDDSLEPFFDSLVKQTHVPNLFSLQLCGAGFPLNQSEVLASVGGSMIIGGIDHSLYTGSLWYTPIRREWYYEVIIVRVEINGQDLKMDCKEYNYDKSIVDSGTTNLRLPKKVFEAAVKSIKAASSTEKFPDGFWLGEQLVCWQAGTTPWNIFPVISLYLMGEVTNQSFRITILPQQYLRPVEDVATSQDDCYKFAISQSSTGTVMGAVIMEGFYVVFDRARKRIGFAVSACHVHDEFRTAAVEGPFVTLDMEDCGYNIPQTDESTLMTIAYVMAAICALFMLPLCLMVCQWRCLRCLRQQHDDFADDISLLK

For `CC1(C)CC[C@]2(O)C(=O)C[C@]3(C)C(=C[C@@H](O)[C@@H]4[C@@]5(C)[C@H](O)CC(=O)C(C)(C)[C@@H]5CC[C@]43C)[C@@H]2C1`, the inhibition [1] was 51.1%, the Activity [2] was 78.1% and the Activity [3] was “Non-Toxic”. For the same compound, the “fold change (FC)” value [4] was 1.42, the Activity [5] was “Active” and the inhibition [6] was “Active”. The Activity [7] was “Non-Toxic”, the Activity [8] was “Active” and the Activity [9] was “Active”. For the same compound, the Activity [10] was “Active”.

`O=c1c(O)c(-c2ccc(O)c(O)c2)oc2cc(O)cc(O)c12` was tested, and the inhibition [6] was “Active”.

Compound `CC1(C)CC[C@]2(O)C(=O)C[C@]3(C)C(=CC[C@@H]4[C@@]5(C)CC[C@H](O)C(C)(C)[C@@H]5CC[C@]43C)[C@@H]2C1` has an Activity [11] of 68.9%.

`CC1(CO)CC[C@]2(O)C(=O)C[C@]3(C)C(=CC[C@@H]4[C@@]5(C)CCC(=O)C(C)(C)[C@@H]5CC[C@]43C)[C@@H]2C1` (some centres undefined) was tested, and the inhibition [1] was 60.6%, the Activity [2] was 81.2% and the Activity [3] was “Non-Toxic”. For the same compound, the “fold change (FC)” value [4] was 1.81, the Activity [5] was “Active” and the inhibition [6] was “Active”. The Activity [7] was “Non-Toxic”, the Activity [8] was “Active” and the Activity [9] was “Active”. For the same compound, the Activity [10] was “Active”.

Compound `CC1(C)CC[C@]2(O)C(=O)C[C@]3(C)C(=CC[C@@H]4[C@@]5(C)CC[C@H](O[C@@H]6O[C@H](C(=O)O)[C@@H](O)[C@H](O[C@@H]7O[C@H](CO)[C@@H](O)[C@H](O)[C@H]7O[C@@H]7O[C@H](CO)[C@@H](O)[C@H](O)[C@H]7O)[C@H]6O[C@H]6O[C@@H](CO)[C@H](O)[C@@H](O)[C@@H]6O)C(C)(C)[C@@H]5CC[C@]43C)[C@@H]2C1` has an Activity [12] of 68.9%.

For `CCCCOC(=O)CC[C@]1(C)[C@H]2CC=C3[C@@H]4C[C@](C)(CO)CC[C@]4(O)C(=O)C[C@@]3(C)[C@]2(C)[C@@H](O)C[C@H]1C(C)(C)O`, the Activity [3] was “Non-Toxic” and the Activity [7] was “Non-Toxic”.

In the case of `CC(=O)O[C@H]1CC[C@]2(C)[C@H]3CC=C4[C@@H]5CC(C)(C)CC[C@]5(C(=O)O)CC[C@@]4(C)[C@]3(C)CC[C@H]2C1(C)C` [ACETYL OLEANOLIC ACID], the Activity [11] is reported as 56.3%.

With `CO[C@@H]1C=C2[C@@H]3CC(C)(C)CC[C@]3(O)C(=O)C[C@@]2(C)[C@]2(C)CC[C@H]3C(C)(C)C(=O)C=C[C@]3(C)[C@@H]12` the inhibition [1] was 61.3%, the Activity [2] was 73.8% and the Activity [3] was “Non-Toxic”. The “fold change (FC)” value [4] was 1.8, the Activity [5] was “Active” and the inhibition [6] was “Active”. For the same compound, the Activity [7] was “Non-Toxic”, the Activity [8] was “Active” and the Activity [9] was “Active”. For the same compound, the Activity [10] was “Active”.

`CC(=O)O[C@H]1CC[C@]2(C)[C@H]3C=CC4=C5CC(C)(C)CC[C@]5(C(=O)O)CC[C@@]4(C)[C@]3(C)CC[C@H]2C1(C)C` gave an Activity [11] of 68.9%.

With `COC(=O)CC[C@@]1(C)C(C(C)(C)O)CC[C@]2(C)[C@@H]1CC=C1[C@@H]3C[C@](C)(CO)CC[C@]3(O)C(=O)C[C@]12C` (some centres undefined) the Activity [13] was 68.9%.

With `CC1(C)CC[C@]2(O)C(=O)C[C@]3(C)C(=CC[C@@H]4[C@@]5(C)CCC(=O)C(C)(C)[C@@H]5CC[C@]43C)[C@@H]2C1` the Activity [13] was 68.9%.

`CC(C)(O)C1CC[C@]2(C)[C@H](CC=C3[C@@H]4C[C@](C)(CO)CC[C@]4(O)C(=O)C[C@]32C)[C@@]1(C)CCC(=O)O` (some centres undefined) showed an Activity [13] of 68.9%.

`CC1(C)CC[C@]2(C(=O)O)C(=O)C[C@]3(C)C(=CC[C@@H]4[C@@]5(C)CC[C@H](O[C@@H]6O[C@H](C(=O)O)[C@@H](O)[C@H](O)[C@H]6O)C(C)(C)[C@@H]5CC[C@]43C)[C@@H]2C1` gave an Activity [13] of 72%.

`CC(C)(O)C1C[C@H](O)[C@]2(C)[C@H](CC=C3[C@@H]4C[C@](C)(CO)CC[C@]4(O)C(=O)C[C@]32C)[C@@]1(C)CCC(=O)O` (some centres undefined) showed an Activity [13] of 68.9%.

In the case of `CC1(C)CC[C@]2(C(=O)O)CC[C@]3(C)C(=CC[C@@H]4[C@@]5(C)CC[C@H](O)C(C)(C)C5CC[C@]43C)[C@@H]2C1` (some centres undefined), the Activity [12] is reported as 58.6%.

Work on `COC(=O)CC[C@@]1(C)C(C(C)(C)O)CC[C@]2(C)[C@@H]1CC=C1[C@@H]3C[C@](C)(CO)CC[C@]3(CO)C(=O)C[C@]12C` (some centres undefined) yielded an Activity [13] of 68.9%.

In the case of `CC1(C)CC[C@]2(O)C(=O)C[C@]3(C)C(=CC[C@@H]4[C@@]5(C)CC[C@H](O[C@@H]6O[C@H](C(=O)O)[C@@H](O)[C@H](O[C@@H]7O[C@H](CO)[C@@H](O)[C@H](O)[C@H]7O[C@@H]7O[C@H](CO)[C@@H](O)[C@H](O)[C@H]7O)[C@H]6O)C(C)(C)[C@@H]5CC[C@]43C)[C@@H]2C1`, the Activity [13] is reported as 68.9%.

For `CCOC(=O)[C@H]1O[C@@H](O[C@H]2CC[C@]3(C)[C@H]4CC=C5[C@@H]6CC(C)(C)CC[C@]6(O)C(=O)C[C@@]5(C)[C@]4(C)CC[C@H]3C2(C)C)[C@H](O)[C@@H](O)[C@@H]1O`, the Activity [11] was 68.9%.

Compound `COC(=O)CC[C@@]1(C)C(C(C)(C)O)C[C@H](O)[C@]2(C)[C@@H]1CC=C1[C@@H]3C[C@](C)(CO)CC[C@]3(O)C(=O)C[C@]12C` (some centres undefined) has an Activity [13] of 68.9%.

For `C=C(C)[C@@H]1C[C@H](O)[C@]2(C)[C@H](CC=C3[C@@H]4C[C@](C)(CO)CC[C@]4(O)C(=O)C[C@]32C)[C@@]1(C)CCC(=O)OC`, the Activity [3] was “Non-Toxic” and the Activity [7] was “Non-Toxic”.

`CC1(C)CC[C@]2(O)C(=O)C[C@]3(C)C(=CC[C@@H]4[C@@]5(C)CC[C@H](O[C@@H]6O[C@H](CO)[C@@H](O)[C@H](O[C@@H]7O[C@H](CO)[C@@H](O)[C@H](O)[C@H]7O[C@@H]7O[C@H](CO)[C@@H](O)[C@H](O)[C@H]7O)[C@H]6O[C@H]6O[C@@H](CO)[C@H](O)[C@@H](O)[C@@H]6O)C(C)(C)[C@@H]5CC[C@]43C)[C@@H]2C1` was tested, and the Activity [12] was 68.9%.

`CC1(C)CC[C@]2(C(=O)O)C(=O)C[C@]3(C)C(=CC[C@@H]4[C@@]5(C)CC[C@H](O[C@@H]6O[C@H](C(=O)O)[C@@H](O)[C@H](O[C@@H]7O[C@H](CO)[C@@H](O)[C@H](O)[C@H]7O[C@@H]7O[C@H](CO)[C@@H](O)[C@H](O)[C@H]7O)[C@H]6O[C@H]6O[C@@H](CO)[C@H](O)[C@@H](O)[C@@H]6O)C(C)(C)[C@@H]5CC[C@]43C)[C@@H]2C1` showed an Activity [13] of 61.7%.

For `CC1(C)CC[C@]2(CO)[C@H](O)C[C@]3(C)C(=CC[C@@H]4[C@@]5(C)CC[C@H](O)C(C)(C)[C@@H]5CC[C@]43C)[C@@H]2C1` [PRIMULAGENIN], the Activity [11] was 60.5%.

With `CC1(C)CC[C@]2(O)C(=O)C[C@]3(C)C(=CC[C@@H]4[C@@]5(C)CC[C@H](O[C@@H]6O[C@H](C(=O)O)[C@@H](O)[C@H](O)[C@H]6O)C(C)(C)[C@@H]5CC[C@]43C)[C@@H]2C1` the Activity [12] was 68.9%.

With `CO[C@@H]1C=C2[C@@H]3CC(C)(C)CC[C@]3(O)C(=O)C[C@@]2(C)[C@]2(C)CC[C@H]3C(C)(C)C(=O)C[C@@H](O)[C@]3(C)[C@@H]12` the inhibition [1] was 51.9%, the Activity [2] was 77% and the Activity [3] was “Non-Toxic”. The “fold change (FC)” value [4] was 1.61, the Activity [5] was “Active” and the inhibition [6] was “Active”. The Activity [7] was “Non-Toxic”, the Activity [8] was “Active” and the Activity [9] was “Active”. The Activity [10] was “Active”.

`CC1(C)CC[C@]2(CO)C(=O)C[C@]3(C)C(=CC[C@@H]4[C@@]5(C)CC[C@H](O[C@@H]6O[C@H](C(=O)O)[C@@H](O)[C@H](O)[C@H]6O)C(C)(C)[C@@H]5CC[C@]43C)[C@@H]2C1` showed an Activity [13] of 55.5%.

`CC(=O)O[C@H]1CC[C@@]2(C)C(CC[C@]3(C)[C@@H]2C(=O)C=C2[C@@H]4CC(C)(C)CC[C@]4(C)CC[C@]23C)C1(C)C` (some centres undefined) gave an Activity [12] of 68.9%.

In the case of `CC1(C)CC[C@]2(O)[C@H](O)C[C@]3(C)C(=CC[C@@H]4[C@@]5(C)CC[C@H](O)C(C)(C)[C@@H]5CC[C@]43C)[C@@H]2C1`, the Activity [11] is reported as 61.9%.

With `C=C(C)C1CC[C@]2(C)[C@H](CC=C3[C@@H]4C[C@](C)(CO)CC[C@]4(O)C(=O)C[C@]32C)[C@@]1(C)CCC(=O)O` (some centres undefined) the Activity [13] was 68.9%.

`CC1(C)CCC2C(=O)C[C@]3(C)C(=C2C1)C=C[C@@H]1[C@@]2(C)CC[C@H](O)C(C)(C)C2CC[C@]13C` (some centres undefined) showed an Activity [12] of 68.9%.

`COC(=O)CC[C@@]1(C)C(C(C)(C)O)C[C@H](O)[C@]2(C)[C@@H]1CC=C1[C@@H]3CC(C)(C)CC[C@]3(O)C(=O)C[C@]12C` (some centres undefined) showed an Activity [13] of 68.9%.
